This is an account of results in patent publication US8044079B2, “Substituted oxindole derivatives, medicaments containing said derivatives and use thereof” (Abbott GmbH & Co. KG, priority 2005, dated 2011).

This test concerns the target T1, human vasopressin V1b receptor (Homo sapiens, UniProt P47901).
T1 construct: expressed in transfected cells; host or cells: CHO-K1 (cell line hV1b_3H2_CHO), membrane preparation
T1 sequence (P47901 1-424): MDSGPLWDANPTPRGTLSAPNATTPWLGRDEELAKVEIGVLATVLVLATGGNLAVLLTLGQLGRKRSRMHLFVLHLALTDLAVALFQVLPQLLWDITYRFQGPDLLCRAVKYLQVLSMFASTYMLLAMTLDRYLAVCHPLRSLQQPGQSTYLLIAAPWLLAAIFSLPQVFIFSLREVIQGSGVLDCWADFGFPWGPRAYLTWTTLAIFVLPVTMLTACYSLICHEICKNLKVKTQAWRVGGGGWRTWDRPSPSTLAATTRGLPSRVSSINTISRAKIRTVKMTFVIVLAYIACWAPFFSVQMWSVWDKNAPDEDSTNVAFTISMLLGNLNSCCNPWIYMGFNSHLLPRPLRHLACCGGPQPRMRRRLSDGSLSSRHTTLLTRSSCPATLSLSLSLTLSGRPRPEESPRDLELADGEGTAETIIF
The test is described as follows: Vasopressin V1b receptor binding test. The settings on record: membranes of CHO-K1 cells with human V1b receptor, displacement of 1.5 nM 3H-AVP; for compounds with more than one stereogenic center the diastereomer with greater affinity. In a few lines: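 Radioligand displacement on membranes carrying human V1b receptor in 50 mM tris, 10 mM MgCl2, 0.1% BSA, pH 7.4, 2% DMSO final; 60 min at room temperature, nonspecific binding with 1 μM AVP. Free ligand removed by filtration, bound counted by liquid scintillation, Ki from nonlinear regression of triplicates.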

Each structure is given as a SMILES string.

Consider `CCNCc1ccc(OC)c(C2(N3C[C@H](OC(C)(C)C)C[C@H]3c3ncco3)C(=O)N(S(=O)(=O)c3ccc(OC)cc3)c3ccc(Cl)cc32)c1` (stereo partly drawn) [Example 219, 3-((2S,4R)-4-tert-butoxy-2-oxazol-2-yl-pyrrolidin-1-yl)-5-chloro-3-(5-ethylaminomethyl-2-methoxyphenyl)-1-(4-methoxybenzenesulfonyl)-1,3-dihydroindol-2-one], for which the Ki was under 10 nM.

`COc1ccc(S(=O)(=O)N2C(=O)C(c3cc(CN4CCOCC4)ccc3OC)(N3C[C@H](O)C[C@H]3c3ncco3)c3cc(C#N)ccc32)cc1` (stereo partly drawn) [Example 220, 5-Cyano-3-((2S,4R)-4-hydroxy-2-oxazol-2-yl-pyrrolidin-1-yl)-1-(4-methoxybenzenesulfonyl)-3-(2-methoxy-5-morpholin-4-ylmethylphenyl)-1,3-dihydroindol-2-one] came in with a Ki of 10 to 100 nM. In the case of `CCN1CCN(Cc2ccc(OC)c(C3(N4C[C@H](O)C[C@H]4c4ncco4)C(=O)N(S(=O)(=O)c4ccc(OC)cc4)c4ccc(C#N)cc43)c2)CC1` (stereo partly drawn) [Example 221, 5-Cyano-3-[5-(4-ethylpiperazin-1-ylmethyl)-2-methoxyphenyl]-3-((2S,4R)-4-hydroxy-2-oxazol-2-yl-pyrrolidin-1-yl)-1-(4-methoxybenzenesulfonyl)-2,3-dihydro-1H-indol-2-one] it was under 10 nM; in that of `COc1ccc(S(=O)(=O)N2C(=O)C(c3cc(CN4CCN(CCO)CC4)ccc3OC)(N3C[C@H](O)C[C@H]3c3ncco3)c3cc(C#N)ccc32)cc1` (stereo partly drawn) [Example 222, 5-Cyano-3-{5-[4-(2-hydroxyethyl)piperazin-1-ylmethyl]-2-methoxyphenyl}-3-((2S,4R)-4-hydroxy-2-oxazol-2-yl-pyrrolidin-1-yl)-1-(4-methoxybenzenesulfonyl)-2,3-dihydro-1H-indol-2-one], 10 to 100 nM.

Take `COc1ccc(S(=O)(=O)N2C(=O)C(c3cc(CN(C)C)ccc3OC)(N3C[C@H](OC)C[C@H]3c3ncco3)c3cc(Cl)ccc32)cc1` (stereo partly drawn) [Example 223, 5-Chloro-3-(5-dimethylaminomethyl-2-methoxyphenyl)-1-(4-methoxybenzenesulfonyl)-3-((2S,4R)-4-methoxy-2-oxazol-2-yl-pyrrolidin-1-yl)-1,3-dihydroindol-2-one]: the Ki is under 10 nM. In the case of `COc1ccc(S(=O)(=O)N2C(=O)C(c3cc(CN4CCN(C)CC4)ccc3OC)(N3C[C@H](OC)C[C@H]3c3ncco3)c3cc(Cl)ccc32)cc1` (stereo partly drawn) [Example 224, 5-Chloro-1-(4-methoxybenzenesulfonyl)-3-[2-methoxy-5-(4-methylpiperazin-1-ylmethyl)phenyl]-3-((2S,4R)-4-methoxy-2-oxazol-2-yl-pyrrolidin-1-yl)-1,3-dihydroindol-2-one] it was under 10 nM; in that of `COc1ccc(S(=O)(=O)N2C(=O)C(c3cc(CN4CCN(C)CC4)ccc3OC)(N3CCC[C@@]3(C)c3ncco3)c3cc(Cl)ccc32)cc1` (stereo partly drawn) [Example 225, 5-Chloro-1-(4-methoxybenzenesulfonyl)-3-[2-methoxy-5-(4-methylpiperazin-1-ylmethyl)phenyl]-3-((S)-2-methyl-2-oxazol-2-yl-pyrrolidin-1-yl)-1,3-dihydroindol-2-one], 10 to 100 nM.

`COc1ccc(S(=O)(=O)N2C(=O)C(c3cc(CN4CCN(CCO)CC4)ccc3OC)(N3CCC[C@@]3(C)c3ncco3)c3cc(Cl)ccc32)cc1` (stereo partly drawn) [Example 226, 5-Chloro-3-{5-[4-(2-hydroxyethyl)piperazin-1-ylmethyl]-2-methoxyphenyl}-1-(4-methoxybenzenesulfonyl)-3-((S)-2-methyl-2-oxazol-2-yl-pyrrolidin-1-yl)-1,3-dihydroindol-2-one] had an inhibitory constant (Ki) of under 10 nM.

Compound `CNCc1ccc(OC)c(C2(N3CCC[C@@]3(C)c3ncco3)C(=O)N(S(=O)(=O)c3ccc(OC)cc3)c3ccc(Cl)cc32)c1` (stereo partly drawn) [Example 227, 5-Chloro-1-(4-methoxybenzenesulfonyl)-3-(2-methoxy-5-methylaminomethylphenyl)-3-((S)-2-methyl-2-oxazol-2-yl-pyrrolidin-1-yl)-1,3-dihydroindol-2-one] registered a Ki of under 10 nM. In the case of `COc1ccc(S(=O)(=O)N2C(=O)C(c3cc(CN4CCN(C)CC4)ccc3OC)(N3C[C@H](F)C[C@H]3c3ncco3)c3cc(C#N)ccc32)cc1` (stereo partly drawn) [Example 228, 5-Cyano-3-((2S,4R)-4-fluoro-2-oxazol-2-yl-pyrrolidin-1-yl)-1-(4-methoxybenzenesulfonyl)-3-[2-methoxy-5-(4-methylpiperazin-1-ylmethyl)phenyl]-1,3-dihydroindol-2-one] it was 10 to 100 nM; in that of `COc1ccc(S(=O)(=O)N2C(=O)C(c3cc(CN4CCN(CCO)CC4)ccc3OC)(N3C[C@H](F)C[C@H]3c3ncco3)c3cc(C#N)ccc32)cc1` (stereo partly drawn) [Example 229, 5-Cyano-3-((2S,4R)-4-fluoro-2-oxazol-2-yl-pyrrolidin-1-yl)-3-{5-[4-(2-hydroxyethyl)piperazin-1-ylmethyl]-2-methoxyphenyl}-1-(4-methoxybenzenesulfonyl)-1,3-dihydroindol-2-one], 10 to 100 nM; in that of `COc1ccc(S(=O)(=O)N2C(=O)C(c3cc(CN(C)C)ccc3OC)(N3C[C@H](F)C[C@H]3c3ncco3)c3cc(C#N)ccc32)cc1` (stereo partly drawn) [Example 230, 5-Cyano-3-(5-dimethylaminomethyl-2-methoxyphenyl)-3-((2S,4R)-4-fluoro-2-oxazol-2-yl-pyrrolidin-1-yl)-1-(4-methoxybenzenesulfonyl)-1,3-dihydroindol-2-one], 10 to 100 nM. In turn, `CCNCc1ccc(OC)c(C2(N3CCC[C@@]3(C)c3ncco3)C(=O)N(S(=O)(=O)c3ccc(OC)cc3)c3ccc(Cl)cc32)c1` (stereo partly drawn) [Example 231, 5-Chloro-3-(5-ethylaminomethyl-2-methoxyphenyl)-1-(4-methoxybenzenesulfonyl)-3-((S)-2-methyl-2-oxazol-2-yl-pyrrolidin-1-yl)-1,3-dihydroindol-2-one] registered a Ki of under 10 nM. As to `CCN1CCN(Cc2ccc(OC)c(C3(N4CCC[C@@]4(C)c4ncco4)C(=O)N(S(=O)(=O)c4ccc(OC)cc4)c4ccc(Cl)cc43)c2)CC1` (stereo partly drawn) [Example 232, 5-Chloro-3-[5-(4-ethylpiperazin-1-ylmethyl)-2-methoxyphenyl]-1-(4-methoxybenzenesulfonyl)-3-((S)-2-methyl-2-oxazol-2-yl-pyrrolidin-1-yl)-1,3-dihydroindol-2-one], the Ki was under 10 nM.

`COc1ccc(S(=O)(=O)N2C(=O)C(c3cc(CN4CCN(CCO)CC4)ccc3OC)(N3CCC[C@H]3c3ncc(C)o3)c3cc(Cl)ccc32)cc1` (stereo partly drawn) [Example 233, 5-Chloro-3-{5-[4-(2-hydroxyethyl)piperazin-1-ylmethyl]-2-methoxyphenyl}-1-(4-methoxybenzenesulfonyl)-3-[(S)-2-(5-methyloxazol-2-yl)-pyrrolidin-1-yl]-1,3-dihydroindol-2-one]: the Ki fell in the range of 10 to 100 nM. In the case of `COc1ccc(S(=O)(=O)N2C(=O)C(c3cc(CN(C)C)ccc3OC)(N3CCC[C@H]3c3ncc(C)o3)c3cc(Cl)ccc32)cc1` (stereo partly drawn) [Example 234, 5-Chloro-3-(5-dimethylaminomethyl-2-methoxyphenyl)-1-(4-methoxybenzenesulfonyl)-3-[(S)-2-(5-methyloxazol-2-yl)-pyrrolidin-1-yl]-1,3-dihydroindol-2-one] it was 10 to 100 nM; in that of `COc1ccc(S(=O)(=O)N2C(=O)C(c3cc(CN4CCN(C)CC4)ccc3OC)(N3CCC[C@H]3c3ncc(C)o3)c3cc(Cl)ccc32)cc1` (stereo partly drawn) [Example 235, 5-Chloro-1-(4-methoxybenzenesulfonyl)-3-[2-methoxy-5-(4-methylpiperazin-1-ylmethyl)phenyl]-3-[(S)-2-(5-methyloxazol-2-yl)-pyrrolidin-1-yl]-1,3-dihydroindol-2-one], 10 to 100 nM.

The Ki is the equilibrium dissociation constant of an inhibitor or competing ligand from its target. Higher therefore signals weaker binding.
